Test system: GNS166 cells
Experiment: Label-free proteomics differential expression
Type: cell-based, human
Method: Proteomic studies were performed by the Proteomics Facility of the CIC bioGUNE by label-free relative quantification on nLC MS/MS. […] In both approaches, the top 20 enriched terms were plotted and the pathways were clustered using divisive hierarchical clustering based on pairwise Jaccard distances.

SMILES: C#CCN(Cc1cc2cc(OCCCN3CCCCC3)ccc2n1S(=O)(=O)c1ccccc1)C(=O)CCCCCCC(=O)NO [DDI]
- LogFC THG1_HUMAN (protein Q9NWX6): -0.1726
- Direction F120C_HUMAN (protein Q9NX05): Down
- LogFC F120C_HUMAN (protein Q9NX05): -0.4931
- Direction IMPA3_HUMAN (protein Q9NX62): Down
- LogFC IMPA3_HUMAN (protein Q9NX62): -2.939
- Direction NSMA3_HUMAN (protein Q9NXE4): Down
- LogFC NSMA3_HUMAN (protein Q9NXE4): -1.089
- Direction TRM1_HUMAN (protein Q9NXH9): Down
- LogFC TRM1_HUMAN (protein Q9NXH9): -1.158
- Direction GTSE1_HUMAN (protein Q9NYZ3): Down
- LogFC GTSE1_HUMAN (protein Q9NYZ3): -2.523
- Direction F120A_HUMAN (protein Q9NZB2): Down
- LogFC F120A_HUMAN (protein Q9NZB2): -0.8566
- Direction MYOF_HUMAN (protein Q9NZM1): Down
- LogFC MYOF_HUMAN (protein Q9NZM1): -1.514
- LogFC SPN90_HUMAN (protein Q9NZQ3 GN=NCKIPSD): 0.408
- LogFC H2AW_HUMAN (protein Q9P0M6 GN=MACROH2A2): -2.056
- Direction RCC2_HUMAN (protein Q9P258): Down
- LogFC RCC2_HUMAN (protein Q9P258): -0.788
- Direction MO4L1_HUMAN (protein Q9UBU8): Down
- LogFC MO4L1_HUMAN (protein Q9UBU8): -1.829
- LogFC SE1L1_HUMAN (protein Q9UBV2 GN=SEL1L): 1.64
- Direction CSN7A_HUMAN (protein Q9UBW8): Down
- LogFC CSN7A_HUMAN (protein Q9UBW8): -0.366
- Direction QCR9_HUMAN (protein Q9UDW1): Down
- LogFC QCR9_HUMAN (protein Q9UDW1): -1.3801
- Direction ABCF2_HUMAN (protein Q9UG63): Down
- LogFC ABCF2_HUMAN (protein Q9UG63): -0.9684
- LogFC SEC63_HUMAN (protein Q9UGP8 GN=SEC63): -0.6574
- Direction Z3H7B_HUMAN (protein Q9UGR2): Down
- LogFC Z3H7B_HUMAN (protein Q9UGR2): -0.582
- Direction ABC3B_HUMAN (protein Q9UH17): Down
- LogFC ABC3B_HUMAN (protein Q9UH17): -2.711
- LogFC PCYOX_HUMAN (protein Q9UHG3 GN=PCYOX1): 1.78
- Direction DDX20_HUMAN (protein Q9UHI6): Down
- LogFC DDX20_HUMAN (protein Q9UHI6): -1.492
- LogFC NB5R1_HUMAN (protein Q9UHQ9 GN=CYB5R1): 0.825
- LogFC VATH_HUMAN (protein Q9UI12 GN=ATP6V1H): 0.8971
- LogFC PRAF1_HUMAN (protein Q9UI14 GN=RABAC1): -1.449
- LogFC DDX41_HUMAN (protein Q9UJV9 GN=DDX41): -0.9972
- LogFC CDC23_HUMAN (protein Q9UJX2 GN=CDC23): -0.6966
- Direction APC7_HUMAN (protein Q9UJX3): Down
- LogFC APC7_HUMAN (protein Q9UJX3): -0.9681
- LogFC NOCT_HUMAN (protein Q9UK39 GN=NOCT): 0.6965
- LogFC CCNL1_HUMAN (protein Q9UK58 GN=CCNL1): -1.514
- LogFC BORG2_HUMAN (protein Q9UKI2 GN=CDC42EP3): 1.338
- LogFC DEN2A_HUMAN (protein Q9ULE3 GN=DENND2A): -2.086
- Direction HEG1_HUMAN (protein Q9ULI3): Down
- LogFC HEG1_HUMAN (protein Q9ULI3): -2.228
- Direction PKHG1_HUMAN (protein Q9ULL1): Down
- LogFC PKHG1_HUMAN (protein Q9ULL1): -2.254
- Direction HECD1_HUMAN (protein Q9ULT8): Down
- LogFC HECD1_HUMAN (protein Q9ULT8): -1.1597
- Direction TPX2_HUMAN (protein Q9ULW0): Down
- LogFC TPX2_HUMAN (protein Q9ULW0): -2.6733
- LogFC SYNRG_HUMAN (protein Q9UMZ2 GN=SYNRG): 0.8469
- Direction MAGD2_HUMAN (protein Q9UNF1): Down
- LogFC MAGD2_HUMAN (protein Q9UNF1): -1.225
- Direction DIM1_HUMAN (protein Q9UNQ2): Down
- LogFC DIM1_HUMAN (protein Q9UNQ2): -1.324
- Direction CP131_HUMAN (protein Q9UPN4): Down
- LogFC CP131_HUMAN (protein Q9UPN4): -0.9726
- Direction TRI33_HUMAN (protein Q9UPN9): Down
- LogFC TRI33_HUMAN (protein Q9UPN9): -0.5693
- LogFC BAIP2_HUMAN (protein Q9UQB8 GN=BAIAP2): 0.1397
- LogFC AKAP2_HUMAN (protein Q9Y2D5 GN=AKAP2): 0.8401
- Direction WBP11_HUMAN (protein Q9Y2W2): Down
- LogFC WBP11_HUMAN (protein Q9Y2W2): -1.003
- LogFC RM11_HUMAN (protein Q9Y3B7 GN=MRPL11): -0.5878
- Direction UFC1_HUMAN (protein Q9Y3C8): Down
- LogFC UFC1_HUMAN (protein Q9Y3C8): -1.4452
- Direction FBX7_HUMAN (protein Q9Y3I1): Down
- LogFC FBX7_HUMAN (protein Q9Y3I1): -0.6256
- LogFC SAMH1_HUMAN (protein Q9Y3Z3 GN=SAMHD1): 0.753
- LogFC TRRAP_HUMAN (protein Q9Y4A5 GN=TRRAP): -1.346
- Direction ARIP4_HUMAN (protein Q9Y4B4): Down
- LogFC ARIP4_HUMAN (protein Q9Y4B4): -1.479
- LogFC IRS2_HUMAN (protein Q9Y4H2 GN=IRS2): 2.2713
- Direction TBL2_HUMAN (protein Q9Y4P3): Down
- LogFC TBL2_HUMAN (protein Q9Y4P3): -0.6001
- LogFC NDK7_HUMAN (protein Q9Y5B8 GN=NME7): 2.17
- Direction PCDGH_HUMAN (protein Q9Y5G0): Down
- LogFC PCDGH_HUMAN (protein Q9Y5G0): -2.292
- LogFC CD2AP_HUMAN (protein Q9Y5K6 GN=CD2AP): 0.4294
- LogFC BZW2_HUMAN (protein Q9Y6E2 GN=BZW2): 0.8735
- LogFC OAS3_HUMAN (protein Q9Y6K5 GN=OAS3): -0.7466
- Direction WASF2_HUMAN (protein Q9Y6W5): Down
- LogFC WASF2_HUMAN (protein Q9Y6W5): -1.033
- Direction NS1BP_HUMAN (protein Q9Y6Y0): Down
- LogFC NS1BP_HUMAN (protein Q9Y6Y0): -2.1021
- LogFC S23IP_HUMAN (protein Q9Y6Y8 GN=SEC23IP): 0.5141
- Direction GLCNE_HUMAN (protein Q9Y223): Down
- LogFC GLCNE_HUMAN (protein Q9Y223): -0.915
- LogFC HPSE_HUMAN (protein Q9Y251 GN=HPSE): 0.7253
- Direction EIF3L_HUMAN (protein Q9Y262): Down
- LogFC EIF3L_HUMAN (protein Q9Y262): -0.4083
- Direction AAR2_HUMAN (protein Q9Y312): Down
- LogFC AAR2_HUMAN (protein Q9Y312): -1.2504
- LogFC SKAP_HUMAN (protein Q9Y448 GN=KNSTRN): -1.456
- Direction TLN1_HUMAN (protein Q9Y490): Down
- LogFC TLN1_HUMAN (protein Q9Y490): -0.5101
- LogFC PPME1_HUMAN (protein Q9Y570 GN=PPME1): 1.066
- LogFC FHOD1_HUMAN (protein Q9Y613 GN=FHOD1): 1.204
- LogFC JAM1_HUMAN (protein Q9Y624 GN=F11R): 1.904
- Direction GPC6_HUMAN (protein Q9Y625): Down
- LogFC GPC6_HUMAN (protein Q9Y625): -2.082
- Direction S12A7_HUMAN (protein Q9Y666): Down
- LogFC S12A7_HUMAN (protein Q9Y666): -2.1239
- LogFC EM55_HUMAN (protein Q00013 GN=MPP1): 0.8133
- Direction NAA25_HUMAN (protein Q14CX7): Down
- LogFC NAA25_HUMAN (protein Q14CX7): -1.1158
- Direction PDS5A_HUMAN (protein Q29RF7): Down
- LogFC PDS5A_HUMAN (protein Q29RF7): -1.029
- LogFC H1BP3_HUMAN (protein Q53T59 GN=HS1BP3): 2.722
- LogFC GL8D1_HUMAN (protein Q68CQ7 GN=GLT8D1): -1.2539
